# Data as given in PubChem BioAssay AID256 (DTP/NCI, 2004).
# Several values for one entry are separate records, joined by “and”; a condition that tells them apart may be missing. Equal values may be shown once. Inconclusive results and toxic doses are left out.
# System: CD2F1 mice, L1210 leukemia ip, survival T/C
# Assay: NCI In Vivo Anticancer Drug Screen. Data for tumor model L1210 Leukemia (intraperitoneal) in CD2F1 (CDF1) mice
# Details: higher = longer survival
# Procedure, shortened: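 Each value reflects a quotient of treated over vehicle control outcomes in mice with a transplanted tumor.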
# [1] = endpoint: mean survival time, dose: 100.0 mg/kg/injection, schedule: Q01DX009 (ip), vehicle: saline with Tween-80
# [2] = endpoint: mean survival time, dose: 200.0 mg/kg/injection, schedule: Q01DX009 (ip), vehicle: saline with Tween-80
# [3] = endpoint: mean survival time, dose: 100.0 mg/kg/injection, schedule: Q04DX003 (ip), vehicle: saline with Tween-80
# [4] = endpoint: mean survival time, dose: 200.0 mg/kg/injection, schedule: Q04DX003 (ip), vehicle: saline with Tween-80
# [5] = endpoint: mean survival time, dose: 100.0 mg/kg/injection, schedule: Q04DX003 (ip), vehicle: saline
# [6] = endpoint: mean survival time, dose: 200.0 mg/kg/injection, schedule: Q04DX003 (ip), vehicle: saline
compound,measurement,setting,value
c1ccc(CN=NNc2ccccc2)cc1,T/C,"endpoint: mean survival time, dose: 75.0 mg/kg/injection, schedule: Q01DX001 (ip), vehicle: saline",94 % of control
same,T/C,"endpoint: mean survival time, dose: 150.0 mg/kg/injection, schedule: Q01DX001 (ip), vehicle: saline",100 % of control
same,T/C,"endpoint: mean survival time, dose: 300.0 mg/kg/injection, schedule: Q01DX001 (ip), vehicle: saline",103 % of control
Nc1cc(=S)c2nnn(C3OC(CO)C(O)C3O)c2[nH]1 (stereo unspecified),T/C,"endpoint: mean survival time, dose: 25.0 mg/kg/injection, schedule: Q01DX009 (ip), vehicle: water",100 % of control
same,T/C,"endpoint: mean survival time, dose: 50.0 mg/kg/injection, schedule: Q01DX009 (ip), vehicle: water",104 % of control
same,T/C,"endpoint: mean survival time, dose: 100.0 mg/kg/injection, schedule: Q01DX009 (ip), vehicle: water",93 % of control
same,T/C,"endpoint: mean survival time, dose: 200.0 mg/kg/injection, schedule: Q01DX009 (ip), vehicle: water",86 % of control
same,T/C,"endpoint: mean survival time, dose: 400.0 mg/kg/injection, schedule: Q01DX009 (ip), vehicle: water",89 % of control
O=C(Nc1ccc(C2=NCCN2)cc1)c1ccc(C(=O)Nc2ccc(C3=NCCN3)cc2)c([N+](=O)[O-])c1,T/C,"endpoint: mean survival time, dose: 5.0 mg/kg/injection, schedule: Q01DX007 (ip), vehicle: saline",124 % of control
same,T/C,"endpoint: mean survival time, dose: 5.0 mg/kg/injection, schedule: Q03DX003 (ip), vehicle: saline",107 % of control
same,T/C,"endpoint: mean survival time, dose: 5.0 mg/kg/injection, schedule: Q04DX003 (ip), vehicle: saline",112 % of control
same,T/C,"endpoint: mean survival time, dose: 8.0 mg/kg/injection, schedule: Q01DX009 (ip), vehicle: saline",158 % of control
same,T/C,"endpoint: mean survival time, dose: 10.0 mg/kg/injection, schedule: Q01DX007 (ip), vehicle: saline",155 % of control
same,T/C,"endpoint: mean survival time, dose: 10.0 mg/kg/injection, schedule: Q01DX009 (ip), vehicle: saline",163 % of control
same,T/C,"endpoint: mean survival time, dose: 10.0 mg/kg/injection, schedule: Q03DX003 (ip), vehicle: saline",113 % of control
same,T/C,"endpoint: mean survival time, dose: 10.0 mg/kg/injection, schedule: Q04DX003 (ip), vehicle: saline",112 % of control
same,T/C,"endpoint: mean survival time, dose: 16.0 mg/kg/injection, schedule: Q01DX009 (ip), vehicle: saline",271 % of control
same,T/C,"endpoint: mean survival time, dose: 20.0 mg/kg/injection, schedule: Q01DX007 (ip), vehicle: saline",181 % of control
same,T/C,"endpoint: mean survival time, dose: 20.0 mg/kg/injection, schedule: Q01DX009 (ip), vehicle: saline",225 % of control
same,T/C,"endpoint: mean survival time, dose: 20.0 mg/kg/injection, schedule: Q04DX003 (ip), vehicle: saline",115 % of control
CN(C)c1ccc(C=C(c2ccc(N)cc2)c2ccc(N)cc2)cc1,T/C,[1],91 % of control
same,T/C,[2],92 % of control
same,T/C,"endpoint: mean survival time, dose: 400.0 mg/kg/injection, schedule: Q01DX009 (ip), vehicle: saline with Tween-80",94 % of control
CC(C)c1ccccc1NC1=NCCO1,T/C,"endpoint: mean survival time, dose: 100.0 mg/kg/injection, schedule: Q04DX003 (ip), vehicle: Klucel (hydroxypropylcellulose) (HPC)",103 % of control
same,T/C,"endpoint: mean survival time, dose: 200.0 mg/kg/injection, schedule: Q04DX003 (ip), vehicle: Klucel (hydroxypropylcellulose) (HPC)",90 % of control
C1CCN(P(N2CCCCC2)N2CCCCC2)CC1,T/C,"endpoint: mean survival time, dose: 100.0 mg/kg/injection, schedule: Q04DX002 (ip), vehicle: saline",92 % of control
same,T/C,"endpoint: mean survival time, dose: 200.0 mg/kg/injection, schedule: Q04DX002 (ip), vehicle: saline",92 % of control
[N-]=[N+]=NC1=C(Br)C(=O)OC1COC(=O)c1ccccc1 (stereo unspecified),T/C,"endpoint: mean survival time, dose: 50.0 mg/kg/injection, schedule: Q04DX002 (ip), vehicle: saline with Tween-80",90 % of control
same,T/C,"endpoint: mean survival time, dose: 100.0 mg/kg/injection, schedule: Q04DX002 (ip), vehicle: saline with Tween-80",90 % of control
O=C(O)c1cc(Br)c(-c2c(Br)cc(C(=O)O)cc2[N+](=O)[O-])c([N+](=O)[O-])c1,T/C,[1],98 % of control
same,T/C,[3],86 % of control
same,T/C,[2],100 % of control
same,T/C,[4],94 % of control
same,T/C,"endpoint: mean survival time, dose: 400.0 mg/kg/injection, schedule: Q04DX003 (ip), vehicle: saline with Tween-80",91 % of control
O=S(=O)(OCC1C2CC3C(C2)C13)c1ccc(Br)cc1 (stereo unspecified),T/C,"endpoint: mean survival time, dose: 100.0 mg/kg/injection, schedule: Q04DX003 (ip), vehicle: other",101 % of control
same,T/C,"endpoint: mean survival time, dose: 200.0 mg/kg/injection, schedule: Q04DX003 (ip), vehicle: other",100 % of control
same,T/C,"endpoint: mean survival time, dose: 400.0 mg/kg/injection, schedule: Q04DX003 (ip), vehicle: other",91 % of control
CNC(=S)C(=S)NC,T/C,"endpoint: mean survival time, dose: 6.25 mg/kg/injection, schedule: Q01DX009 (ip), vehicle: saline with Tween-80",100 % of control
same,T/C,"endpoint: mean survival time, dose: 12.5 mg/kg/injection, schedule: Q01DX009 (ip), vehicle: saline with Tween-80",97 % of control
same,T/C,"endpoint: mean survival time, dose: 25.0 mg/kg/injection, schedule: Q01DX009 (ip), vehicle: saline with Tween-80",95 % of control
same,T/C,"endpoint: mean survival time, dose: 50.0 mg/kg/injection, schedule: Q04DX003 (ip), vehicle: saline with Tween-80",93 % of control
NC(CSC(c1ccccc1)(c1ccccc1)c1ccccc1)C(=O)O (stereo unspecified) (tested in a mixture with another compound),T/C,"endpoint: mean survival time, dose: 5.5 mg/kg/injection, schedule: Q04DX003 (ip), vehicle: water",105 % of control
same,T/C,"endpoint: mean survival time, dose: 8.3 mg/kg/injection, schedule: Q04DX003 (ip), vehicle: water",102 % of control
same,T/C,"endpoint: mean survival time, dose: 12.4 mg/kg/injection, schedule: Q04DX003 (ip), vehicle: water",102 % of control
same,T/C,"endpoint: mean survival time, dose: 18.6 mg/kg/injection, schedule: Q04DX003 (ip), vehicle: water",108 % of control
same,T/C,"endpoint: mean survival time, dose: 28.0 mg/kg/injection, schedule: Q04DX003 (ip), vehicle: water",103 % of control
same,T/C,"endpoint: mean survival time, dose: 42.0 mg/kg/injection, schedule: Q04DX003 (ip), vehicle: water",103 % of control
same,T/C,"endpoint: mean survival time, dose: 63.0 mg/kg/injection, schedule: Q04DX003 (ip), vehicle: water",90 % of control
Clc1ccc(C2c3ccccc3C[n+]3ccccc32)cc1 (stereo unspecified),T/C,"endpoint: mean survival time, dose: 12.5 mg/kg/injection, schedule: Q04DX003 (ip), vehicle: Klucel (hydroxypropylcellulose) (HPC)",93 % of control
same,T/C,"endpoint: mean survival time, dose: 25.0 mg/kg/injection, schedule: Q04DX003 (ip), vehicle: Klucel (hydroxypropylcellulose) (HPC)",93 % of control
CC1(C)C2CC=C(CCCc3ccccc3)C1C2 (stereo unspecified),T/C,[3],98 % of control
same,T/C,[4],93 % of control
N#CCc1ccccc1-c1ccccc1CC#N,T/C,"endpoint: mean survival time, dose: 5.0 mg/kg/injection, schedule: Q01DX001 (ip), vehicle: other",106 % of control
same,T/C,"endpoint: mean survival time, dose: 10.0 mg/kg/injection, schedule: Q01DX001 (ip), vehicle: other",100 % of control
same,T/C,"endpoint: mean survival time, dose: 20.0 mg/kg/injection, schedule: Q01DX001 (ip), vehicle: other",96 % of control
same,T/C,"endpoint: mean survival time, dose: 40.0 mg/kg/injection, schedule: Q01DX001 (ip), vehicle: other",104 % of control
CCOC(=O)C(CC)CO (stereo unspecified),T/C,[5],105 % of control
same,T/C,[6],103 % of control
same,T/C,"endpoint: mean survival time, dose: 400.0 mg/kg/injection, schedule: Q04DX003 (ip), vehicle: saline",103 % of control
CC(=O)c1cccc([N+](=O)[O-])c1,T/C,"endpoint: mean survival time, dose: 100.0 mg/kg/injection, schedule: Q01DX009 (ip), vehicle: other",105 % of control
same,T/C,"endpoint: mean survival time, dose: 200.0 mg/kg/injection, schedule: Q01DX009 (ip), vehicle: other",97 % of control
same,T/C,"endpoint: mean survival time, dose: 400.0 mg/kg/injection, schedule: Q01DX009 (ip), vehicle: other",102 % of control
Clc1ccc(N2CSCSC2)cc1,T/C,"endpoint: mean survival time, dose: 50.0 mg/kg/injection, schedule: Q01DX009 (ip), vehicle: saline with Tween-80",95 % of control
same,T/C,[1],98 % of control
same,T/C,[2],95 % of control
CC(C(=O)O)C(C(=O)O)C(=O)O (stereo unspecified),T/C,[5],93 % of control
same,T/C,[6],96 % of control
[Cl][Pt][Cl].[NH-]C(CO)C(=O)O (stereo unspecified),T/C,"endpoint: mean survival time, dose: 3.13 mg/kg/injection, schedule: Q04DX003 (ip), vehicle: water",106 % of control
same,T/C,"endpoint: mean survival time, dose: 6.25 mg/kg/injection, schedule: Q04DX003 (ip), vehicle: water",113 % of control
same,T/C,"endpoint: mean survival time, dose: 12.5 mg/kg/injection, schedule: Q04DX003 (ip), vehicle: water",113 % of control
same,T/C,"endpoint: mean survival time, dose: 25.0 mg/kg/injection, schedule: Q04DX003 (ip), vehicle: water",118 % of control
same,T/C,"endpoint: mean survival time, dose: 50.0 mg/kg/injection, schedule: Q04DX003 (ip), vehicle: water",119 % of control
same,T/C,"endpoint: mean survival time, dose: 100.0 mg/kg/injection, schedule: Q04DX003 (ip), vehicle: water",95 % of control
same,T/C,"endpoint: median survival time, dose: 6.25 mg/kg/injection, schedule: Q01DX009 (ip), vehicle: water",117 % of control
same,T/C,"endpoint: median survival time, dose: 12.5 mg/kg/injection, schedule: Q01DX009 (ip), vehicle: water",117 % of control
same,T/C,"endpoint: median survival time, dose: 25.0 mg/kg/injection, schedule: Q01DX009 (ip), vehicle: water",124 % of control
O=C(C#Cc1ccccc1)c1ccccc1,T/C,"endpoint: mean survival time, dose: 3.12 mg/kg/injection, schedule: Q01DX009 (ip), vehicle: Klucel (hydroxypropylcellulose) (HPC)",86 % of control and 98 % of control
same,T/C,"endpoint: mean survival time, dose: 6.25 mg/kg/injection, schedule: Q01DX009 (ip), vehicle: Klucel (hydroxypropylcellulose) (HPC)",92 % of control and 97 % of control
same,T/C,"endpoint: mean survival time, dose: 12.5 mg/kg/injection, schedule: Q01DX009 (ip), vehicle: Klucel (hydroxypropylcellulose) (HPC)",92 % of control and 104 % of control
same,T/C,"endpoint: mean survival time, dose: 25.0 mg/kg/injection, schedule: Q01DX009 (ip), vehicle: Klucel (hydroxypropylcellulose) (HPC)",86 % of control and 107 % of control
same,T/C,"endpoint: mean survival time, dose: 50.0 mg/kg/injection, schedule: Q01DX009 (ip), vehicle: Klucel (hydroxypropylcellulose) (HPC)",89 % of control
